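Five compound concentrations were applied to cells in 96-well plates for 48 hours; endpoints were derived by simple linear interpolation of the resulting dose-response curve. At the TGI there is no net growth.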
Experiments:
Assay in all cases: growth of human tumour cells (NCI), 48 h
SN12C renal = test system: SN12C renal
UACC-257 melanoma = test system: UACC-257 melanoma
MALME-3M melanoma = test system: MALME-3M melanoma
NCI-H460 lung = test system: NCI-H460 lung
LOX IMVI melanoma = test system: LOX IMVI melanoma
HL-60(TB) leukemia = test system: HL-60(TB) leukemia
EKVX NSCLC = test system: EKVX NSCLC
M14 melanoma = test system: M14 melanoma
SK-OV-3 ovarian = test system: SK-OV-3 ovarian
MOLT-4 leukemia = test system: MOLT-4 leukemia
SW-620 colon = test system: SW-620 colon
HCC-2998 colon = test system: HCC-2998 colon
BT-549 breast = test system: BT-549 breast
MDA-MB-231 breast = test system: MDA-MB-231 breast
SR leukemia = test system: SR leukemia
MCF7 breast = test system: MCF7 breast

SMILES | TGI (SN12C renal) [µM] | TGI (UACC-257 melanoma) [µM] | TGI (MALME-3M melanoma) [µM] | TGI (NCI-H460 lung) [µM] | TGI (LOX IMVI melanoma) [µM] | TGI (HL-60(TB) leukemia) [µM] | TGI (EKVX NSCLC) [µM] | TGI (M14 melanoma) [µM] | TGI (SK-OV-3 ovarian) [µM] | TGI (MOLT-4 leukemia) [µM] | TGI (SW-620 colon) [µM] | TGI (HCC-2998 colon) [µM] | TGI (BT-549 breast) [µM] | TGI (MDA-MB-231 breast) [µM] | TGI (SR leukemia) [µM] | TGI (MCF7 breast) [µM]
O=C1C[C@@H]2[C@@H](CCC23CCCC3)N1 | > 100 | > 100 | > 100 | > 100 | > 100 | > 100 | > 100 | > 100 | > 100 | > 100 | > 100 | > 100 |  |  |  | 
CC1=NNC(=O)C1C1CC(c2c[nH]c3ccccc23)=NN(c2ccccc2)C1=O (configuration not stated) | > 100 | > 100 | > 100 | > 100 | > 100 | 92.4 | > 100 | > 100 | > 100 | > 100 | > 100 |  | > 100 | > 100 |  | 
N#Cc1sc2c(c1OC(=O)c1ccc(Cl)cc1)c(=O)n(-c1ccccc1)c(=S)n2-c1ccccc1 | 54 | > 100 | 54.4 | 33.3 | 37.3 | 46.6 | 49.2 | 50.8 | 91.4 | 68.7 | 46.9 | 52.2 |  | 97 | 75.9 | 84.2
CCOC(=O)NC(Nc1ccc(S(=O)(=O)Nc2ccc(OC)nn2)cc1)(C(F)(F)F)C(F)(F)F | 83.9 | 98.6 | 40.2 | > 100 | 82 | 58.2 | > 100 | 50.4 | > 100 | 49.5 | > 100 | > 100 |  | 38.1 | 55.8 | > 100
CC(NC(=O)C(N)CC(=O)O)C(=O)OC12CC3CC(CC(C3)C1)C2 (configuration not stated) | > 100 | > 100 |  | > 100 | > 100 |  | > 100 | > 100 | > 100 | > 100 | > 100 | > 100 |  | > 100 | > 100 | > 100
CC(=O)NNc1nc(C)c(C(/C=C/c2ccc(Cl)cc2)=N\N=C(N)N)s1 | > 100 | > 100 | > 100 | > 100 | > 100 | > 100 |  | > 100 | > 100 | > 100 | > 100 | > 100 |  |  | > 100 | 
CCOC(CN(C)C(=O)Nc1ccc(Cl)c(Cl)c1)OCC | > 10 | > 10 | > 10 | > 10 | > 10 | > 10 | > 10 | > 10 | > 10 | > 10 | > 10 | > 10 |  | > 10 | > 10 | > 10
CC(C)(C)C(O)CC(O)(C(F)(F)F)C(F)(F)F (configuration not stated) | > 100 | > 100 | > 100 | > 100 | > 100 | > 100 | > 100 | > 100 | > 100 | > 100 | > 100 | > 100 |  | > 100 | > 100 | > 100
C=CCOC1CC(n2cnc3c(N)ncnc32)OC1CO (configuration not stated) |  | > 100 | > 100 | > 100 |  | > 100 |  | > 100 |  | > 100 | > 100 | > 100 |  |  | > 100 | 
O=C(O)CCNc1ncc2c(n1)-c1ccccc1OC2 | > 100 | > 100 | > 100 | > 100 | > 100 | > 100 | > 100 | > 100 | > 100 | > 100 | > 100 |  |  | > 100 | > 100 | > 100
Cc1ccc(C(=O)C(c2nc3n(c2O)C(=N)N=N3)c2nc3n(c2O)C(=N)N=N3)cc1 (configuration not stated) | > 100 | > 100 | > 100 | > 100 | > 100 | > 100 | > 100 | > 100 | > 100 | > 100 | > 100 | > 100 |  |  |  | 
O=C(CC(=O)N1N=C(n2ccc3ccccc32)CC1c1ccccc1)Nc1ccc(Cl)cc1 (configuration not stated) | > 100 | > 100 | > 100 | > 100 | > 100 | > 100 | > 100 | > 100 | > 100 | > 100 | > 100 | > 100 |  |  |  | 
O=C1N=CN=C2C=CC(Cl)=C(I)C12 (configuration not stated) | > 100 | > 100 | > 100 | > 100 | > 100 | > 100 | > 100 | > 100 | > 100 | > 100 | > 100 | > 100 |  |  | > 100 | 
O=C(NC1CCN(Cc2ccccc2)CC1)c1cccc(I)c1 | > 100 | 33.2 | 32.5 | 63.7 | 37.8 | > 100 | > 100 | 30.9 | 42.8 | > 100 | 30.9 |  | > 100 | 32.1 | 80.3 | 
O=S1(=O)OCCOS(=O)(=O)C1(Cl)Cl | > 100 | > 100 | > 100 |  | > 100 | > 100 | > 100 | > 100 | > 100 | > 100 | > 100 | > 100 |  |  | > 100 | 
O=C1NC(=S)N/C1=C\c1ccc(Cl)cc1 | > 100 |  | > 100 |  | > 100 |  | > 100 | > 100 | > 100 | > 100 | > 100 | > 100 | > 100 | > 100 |  | > 100
C/C(=N\Nc1nc2ccccc2o1)c1ncccn1 | 15.2 | 15.6 |  | 14 | 0.199 |  | 14.1 | 0.295 | 10 | 0.0282 | 28.3 | 20.7 | 34.8 | 21.5 | 0.228 | 
CC(=O)c1cc2c(s1)C(=O)c1ccsc1C2=O | 0.352 | 0.285 | 0.332 |  | 0.0782 | 0.369 | 3.24 | 1.2 | 5.38 | 2.17 | 0.37 | 3.17 | 0.356 |  |  | 1.68
CC1OC(OC2C(OC(=O)[C@]34CCC(C)(C)CC3C3=CCC5[C@@]6(C)C[C@H](O)[C@H](OC7OC(COC8OC(CO)C(O)C(O)C8O)C(O)C(O)C7O)[C@@](C)(C(=O)O)C6CC[C@@]5(C)C3(C)CC4)OCC(O)C2O)C(O)C(O)C1OC1OCC(O)C(O)C1O (some centres not stated) | > 100 | > 100 | > 100 | > 100 | > 100 | > 100 | > 100 |  | > 100 | > 100 | > 100 | > 100 |  |  |  | 
Cc1ccc(S(=O)(=O)NN=C2C(C)(C)CC2(C)C)cc1 | > 100 | > 100 | > 100 | > 100 | > 100 | > 100 | > 100 | > 100 | > 100 | > 100 | > 100 | > 100 |  | > 100 |  | > 100
Cc1ccc(NC(=O)CCc2nnc3s/c(=C\c4cccc([N+](=O)[O-])c4)c(=O)n23)cc1 | > 100 | > 100 | > 100 | > 100 | > 100 |  | > 100 | > 100 | > 100 | > 100 | 38.6 | > 100 |  |  | > 100 | 
O=C1CNc2cc(N3CCOCC3)ccc2N1 |  | > 100 | > 100 | > 100 | > 100 | > 100 | > 100 | > 100 | > 100 | > 100 | > 100 | > 100 | > 100 | > 100 | > 100 | 
Cc1cc(N(CCC#N)CCC#N)ccc1/C=C1N=C(/C=C/c2ccccc2)N(c2ccc(S(N)(=O)=O)cc2)C\1=O | > 100 | > 100 | > 100 | > 100 | > 100 | > 100 |  | > 100 | > 100 | > 100 | > 100 |  |  |  | > 100 | 
CN1C(=S)CSc2ccccc21 | > 100 | > 100 | > 100 | > 100 | > 100 | > 100 | > 100 | > 100 | > 100 | > 100 | > 100 |  |  |  | > 100 | 
O=C(CSc1nnc(Cc2ccccc2)o1)Nc1ccc(Cl)cc1[N+](=O)[O-] | 31.4 | 36.3 | 30.2 |  | 26.3 | 61.5 | 40.1 | 32.9 | > 100 | > 100 | 53.8 |  |  |  | > 100 | 
CCC(=O)N(c1ccccc1)C(C)CN1CCC(O)(c2cccc(C(F)(F)F)c2)CC1 (configuration not stated) | > 100 | 34.3 |  |  | 35 | 39.3 | > 100 | 33.4 | > 100 | 44.5 | > 100 | 57.3 |  | 44.7 |  | 
COC(=O)C1CC(c2ccc(Cl)cc2)=NO1 (configuration not stated) | > 100 | > 100 | > 100 | > 100 |  | > 100 | > 100 | > 100 | > 100 | > 100 | > 100 | > 100 |  |  | > 100 | 

— PubChem BioAssay (NCI)
